Measured values from US9242996B2 (Novartis AG, priority 2013, dated 2016).

Biological target: T1, activated ERK2 (Homo sapiens (Human), UniProt P28482)
Assay: Activated ERK2 (20 pM) Kinase Assay (AlphaScreen, ERKtide phosphorylation)
Assay type: biochemical
Settings: 0.02 nM ERK2, 400 nM ERKtide peptide, 35 μM ATP, 30 min preincubation
Outline: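 Activated human ERK2 (0.02 nM) preincubated 30 min with compounds, then 400 nM ERKtide and 35 μM ATP added for 4 h at ambient temperature in HEPES pH 7.5, MgCl2, DTT, Tween-20, BSA. EDTA stop; phospho-peptide read by AlphaScreen after overnight dark incubation; four-parameter IC50.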

T1 sequence (P28482 whole entry): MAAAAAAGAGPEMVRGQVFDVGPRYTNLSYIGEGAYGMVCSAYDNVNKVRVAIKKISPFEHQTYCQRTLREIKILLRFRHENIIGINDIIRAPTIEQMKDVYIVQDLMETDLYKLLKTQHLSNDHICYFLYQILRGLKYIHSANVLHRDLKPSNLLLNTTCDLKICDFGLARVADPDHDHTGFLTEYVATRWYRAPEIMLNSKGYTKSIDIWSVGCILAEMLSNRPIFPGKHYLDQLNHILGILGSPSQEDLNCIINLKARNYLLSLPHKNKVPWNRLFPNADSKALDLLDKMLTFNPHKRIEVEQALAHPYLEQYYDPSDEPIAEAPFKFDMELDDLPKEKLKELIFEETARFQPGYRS

| SMILES | IC50 [nM] |
| --- | --- |
| CNC[C@@H](NC(=O)c1ccc(-c2nc(C3CCOCC3)cnc2N)cc1F)c1cc(F)cc(Cl)c1 [Example 336, (S)-4-(3-amino-6-(tetrahydro-2H-pyran-4-yl)pyrazin-2-yl)-N-(1-(3-chloro-5-fluorophenyl)-2-(methylamino)ethyl)-2-fluorobenzamide] | 0.0143 |
| CNC[C@@H](NC(=O)c1ccc(-c2nc([C@@H]3CC[C@@H](O)[C@H](F)C3)cnc2N)cc1F)c1cc(F)cc(Br)c1 [Example 361, 4-(3-amino-6-((1R,3R,4R)-3-fluoro-4-hydroxy-cyclohexyl)pyrazin-2-yl)-N-((S)-1-(3-bromo-5-fluorophenyl)-2-(methylamino)ethyl)-2-fluorobenzamide] | 0.104 |
| Cc1c(-c2cnc(N)c(-c3ccc(C(=O)N[C@H](CO)c4cc(F)cc(C(F)F)c4)c(F)c3)c2)cnn1C [Example 271, (S)-4-(2-amino-5-(1,5-dimethyl-1H-pyrazol-4-yl)pyridin-3-yl)-N-(1-(3-(difluoromethyl)-5-fluorophenyl)-2-hydroxyethyl)-2-fluorobenzamide] | 0.0308 |
| CNC[C@@H](NC(=O)c1ccc(-c2nc(C3CCOCC3)cnc2N)cc1F)c1cc(F)cc(Br)c1 [Example 365, (S)-4-(3-amino-6-(tetrahydro-2H-pyran-4-yl)pyrazin-2-yl)-N-(1-(3-bromo-5-fluorophenyl)-2-(methylamino)ethyl)-2-fluorobenzamide] | 0.0208 |
| Cn1nncc1-c1cnc(N)c(-c2ccc(C(=O)N[C@H](CO)c3cccc(Br)c3)c(F)c2)c1 [Example 266, (S)-4-(2-amino-5-(1-methyl-1H-1,2,3-triazol-5-yl)pyridin-3-yl)-N-(1-(3-bromophenyl)-2-hydroxyethyl)-2-fluorobenzamide] | 0.0487 |

Next, values leading:

| IC50 [nM] | SMILES |
| --- | --- |
| 0.014 | Cc1c(-c2cnc(N)c(-c3ccc(C(=O)N[C@H](CO)c4cc(F)cc(CF)c4)c(F)c3)c2)cnn1C(F)F [Example 262, (S)-4-(2-amino-5-(1-(difluoromethyl)-5-methyl-1H-pyrazol-4-yl)pyridin-3-yl)-2-fluoro-N-(1-(3-fluoro-5-(fluoromethyl)phenyl)-2-hydroxyethyl) benzamide] |
| 0.0469 | Nc1ncc([C@H]2CC[C@H](O)[C@H](F)C2)nc1-c1ccc(C(=O)N[C@H](CO)c2cc(F)cc(Br)c2)c(F)c1 [Example 188, 4-(3-amino-6-((1S,3R,4S)-3-fluoro-4-hydroxycyclohexyl)pyrazin-2-yl)-N—((S)-1-(3-bromo-5-fluorophenyl)-2-hydroxyethyl)-2-fluorobenzamide] |
| 0.0197 | Nc1ncc(C2CCOCC2)nc1-c1ccc(C(=O)N[C@H](CO)c2cccc(CF)c2)c(F)c1 [Example 257, (S)-4-(3-amino-6-(tetrahydro-2H-pyran-4-yl)pyrazin-2-yl)-2-fluoro-N-(1-(3-(fluoromethyl)phenyl)-2-hydroxyethyl) benzamide] |
| 0.221 | Nc1ncc([C@H]2CCC(F)(F)[C@H](O)C2)nc1-c1ccc(C(=O)N[C@H](CO)c2cccc(Cl)c2)c(F)c1 [Example 470, 4-(3-amino-6-((1S,3R)-4,4-difluoro-3-hydroxycyclo-hexyl)pyrazin-2-yl)-N-((S)-1-(3-chlorophenyl)-2-hydroxyethyl)-2-fluorobenzamide] |

Biological target: T1, activated ERK2
Assay: Activated ERK2 kinase assay, ERK2 New conditions (AlphaScreen, ERKtide phosphorylation)
Assay type: biochemical
Settings: 0.25 nM ERK2, 200 nM ERKtide peptide, 35 μM ATP, 30 min preincubation
Description: The assay is carried out in 50 mM HEPES [pH 7.5], 5 mM MgCl2, 1 mM DTT, 0.01% Tween-20, 0.05% BSA using 0.25 nM ERK2, 200 nM ERKtide peptide and 35 μM ATP (all concentrations are final in the reaction) in a total volume of 10.25 μL. […] Compound dilution series are prepared in 100% DMSO. ERK2 is preincubated with compounds for 30 minutes at ambient temperature. Reaction is initiated by addition of a substrate cocktail of ERKtide peptide and ATP and is allowed to proceed for 2-3 hours at ambient temperature. Reaction is terminated by addition of 10 μL of a 2× stop buffer consisting of 100 mM Tris-Cl [pH 7.5], 25 mM EDTA, 0.01% Tween 20, 10 μg/mL of AlphaScreen Protein A Acceptor Beads, 10 μg/mL of Streptavidin Donor Beads (PerkinElmer, Waltham, Mass.), and 1.4 μg/mL phospho-EGF Receptor (Thr669) antibody (Cat #3056, Cell Signaling Technology, Danvers, Mass.). Terminated reactions are read, after overnight incubation in the dark, on an EnVision Multilabel Plate Reader (PerkinElmer, Waltham, Mass.), with excitation and emission wavelengths set to 680 nm and 570 nm, respectively. IC50 values are determined using a four-parameter fit.

| SMILES | IC50 [nM] |
| --- | --- |
| Cn1cncc1-c1cnc(N)c(-c2ccc(C(=O)N[C@H](CO)c3cccc(Cl)c3)c(F)c2)c1 [Example 235, (S)-4-(2-amino-5-(1-methyl-1H-imidazol-5-yl)pyridin-3-yl)-N-(1-(3-chlorophenyl)-2-hydroxyethyl)-2-fluorobenzamide] | 0.326 |
| Cc1oncc1-c1cnc(N)c(-c2ccc(C(=O)N[C@H](CO)c3ccccc3)c(F)c2)c1 [Example 158, (S)-4-(2-amino-5-(5-methylisoxazol-4-yl)pyridin-3-yl)-2-fluoro-N-(2-hydroxy-1-phenylethyl)benzamide] | 0.634 |
| Cn1cncc1-c1cnc(N)c(-c2ccc(C(=O)N[C@H](CO)c3ccccc3)c(F)c2)c1 [Example 140, (S)-4-(2-amino 5-(1-methyl-1H-imidazol-5-yl)pyridin-3-yl)-2-fluoro-N-(2-hydroxy-1-phenylethyl)benzamide] | 1.41 |
| Nc1ncc(C2CCOCC2)nc1-c1ccc(C(=O)N[C@@H]2CCCN(Cc3ccccc3F)C2)c(F)c1 [Example 126, (R)-4-(3-amino-6-(tetrahydro-2H-pyran-4-yl)pyrazin-2-yl)-2-fluoro-N-(1-(2-fluorobenzyl)piperidin-3-yl)benzamide] | 169 |
| CCn1cc(-c2cnc(N)c(-c3ccc(C(=O)N[C@H](CO)c4ccccc4)c(F)c3)c2)cn1 [Example 314, (S)-4-(2-amino-5-(1-ethyl-1H-pyrazol-4-yl)pyridin-3-yl)-2-fluoro-N-(2-hydroxy-1-phenylethyl) benzamide] | 1.48 |
| Nc1ncc([C@@H]2CCS(=O)(=O)C2)cc1-c1ccc(C(=O)NCc2ccccc2)c(F)c1 (single isomer, unassigned) [Example 5] | 278 |
| CC(=O)N1CCC(c2cnc(N)c(-c3ccc(C(=O)N[C@H](CO)c4cccc(Cl)c4)c(F)c3)n2)CC1 [Example 61, (S)-4-(6-(1-acetylpiperidin-4-yl)-3-aminopyrazin-2-yl)-N-(1-(3-chlorophenyl)-2-hydroxyethyl)-2-fluorobenzamide] | 1.24 |
| CS(=O)(=O)N1CCC(c2cnc(N)c(-c3ccc(C(=O)N[C@H](CO)c4ccccc4)c(F)c3)c2)C1 (stereo partly drawn) [Example 63, 4-(2-amino-5-(1-(methylsulfonyl)pyrrolidin-3-yl)pyridin-3-yl)-2-fluoro-N-((S)-2-hydroxy-1-phenylethyl)benzamide] | 23.3 |
| COC(=O)N1CCC(c2cnc(N)c(-c3ccc(C(=O)N[C@H](CO)c4ccccc4)c(F)c3)c2)C1 (stereo partly drawn) [Example 62, methyl 3-(6-amino-5-(3-fluoro-4-(((S)-2-hydroxy-1-phenylethyl)carbamoyl)phenyl)pyridin-3-yl)pyrrolidine-1-carboxylate] | 64.1 |
| Nc1ncc([C@H]2CC[C@H](O)CC2)nc1-c1ccc(C(=O)NCc2ccccc2)c(F)c1 [Example 14, 4-(3-amino-6-((1r,4r)-4-hydroxycyclohexyl)pyrazin-2-yl)-N-benzyl-2-fluorobenzamide] | 12.7 |
| Cc1cccc([C@@H](CO)NC(=O)c2ccc(-c3cc(-c4cnnn4C)cnc3N)cc2F)c1 [Example 306, (S)-4-(2-amino-5-(1-methyl-1H-1,2,3-triazol-5-yl)pyridin-3-yl)-2-fluoro-N-(2-hydroxy-1-(m-tolyl)ethyl) benzamide] | 0.378 |
| COC(=O)N1CCCC(c2cnc(N)c(-c3ccc(C(=O)N[C@H](CO)c4ccccc4)c(F)c3)n2)C1 (stereo partly drawn) [Example 214, methyl 3-(5-amino-6-(3-fluoro-4-(((S)-2-hydroxy-1-phenylethyl)carbamoyl)phenyl)pyrazin-2-yl)piperidine-1-carboxylate] | 13.4 |

The remaining lines, values ahead:

| IC50 [nM] | SMILES |
| --- | --- |
| 0.73 | Cc1c(-c2cnc(N)c(-c3ccc(C(=O)N[C@H](CO)c4ccccc4)c(F)c3)n2)cnn1C [Example 247, (S)-4-(3-amino-6-(1,5-dimethyl-1H-pyrazol-4-yl)pyrazin-2-yl)-2-fluoro-N-(2-hydroxy-1-phenylethyl) benzamide] |
| 12.4 | CC(=O)N1CCC(c2cnc(N)c(-c3ccc(C(=O)N[C@H](CO)c4ccccc4)c(F)c3)n2)CC1 [Example 60, (S)-4-(6-(1-acetylpiperidin-4-yl)-3-aminopyrazin-2-yl)-2-fluoro-N-(2-hydroxy-1-phenylethyl)benzamide] |
| 0.899 | Cn1nccc1-c1cnc(N)c(-c2ccc(C(=O)N[C@H](CO)c3cccc(S(C)(=O)=O)c3)c(F)c2)c1 [Example 230, (S)-4-(2-amino-5-(1-methyl-1H-pyrazol-5-yl)pyridin-3-yl)-2-fluoro-N-(2-hydroxy-1-(3-(methylsulfonyl)phenyl)ethyl) benzamide] |
| 45.9 | Nc1ncc(C2CCOCC2)nc1-c1ccc(C(=O)N[C@@H]2CCCN(S(=O)(=O)c3ccccc3)C2)c(F)c1 [Example 49, (R)-4-(3-amino-6-(tetrahydro-2H-pyran-4-yl)pyrazin-2-yl)-2-fluoro-N-(1-(phenylsulfonyl)piperidin-3-yl)benzamide] |
| 5.32 | CN1C[C@@H](c2cnc(N)c(-c3ccc(C(=O)N[C@H](CO)c4cccc(Cl)c4)c(F)c3)c2)CC1=O [Example 43, 4-(2-amino-5-((R)-1-methyl-5-oxopyrrolidin-3-yl)pyridin-3-yl)-N—((S)-1-(3-chlorophenyl)-2-hydroxyethyl)-2-fluorobenzamide] |
| 72.3 | Nc1ncc([C@H]2CNC(=O)C2)cc1-c1ccc(C(=O)N[C@H](CO)c2ccccc2)c(F)c1 [Example 220, 4-(2-amino-5-((S)-5-oxopyrrolidin-3-yl)pyridin-3-yl)-2-fluoro-N—((S)-2-hydroxy-1-phenylethyl)benzamide] |
| 1090 | CNC(=O)CCc1cnc(N)c(-c2ccc(C(=O)NCc3ccccc3)c(F)c2)n1 [Example 20, 4-(3-amino-6-(3-(methylamino)-3-oxopropyl)pyrazin-2-yl)-N-benzyl-2-fluorobenzamide] |
